{
  "source": "paper PMC5675618",
  "about": "“Identification and validation of FGFR2 peptide for detection of early Barrett's neoplasia” (Oncotarget, 2017)",
  "key": {"QhTERT wild-type cells": {"system": "QhTERT wild-type cells", "assay": "Confocal fluorescence microscopy, binding to wild-type QhTERT cells", "format": "cell-based, human", "settings": "1 μM peptide, 10 min at RT, 63X", "description": "All human esophageal specimens were obtained with written, informed patient consent per approval and guidelines of the University of Michigan Institutional Review Board (IRB). Human non-dysplastic Barrett's esophagus (BE) cells immortalized with hTert (QhTERT) were obtained from the American Type Culture Collection (ATCC) and cultured in keratinocyte-serum free medium containing bovine pituitary extract and human recombinant EGF (ThermoFisher #17005042). QhTERT cells with stable expression of FGFR2b or FGFR2c were provided (DGB). We cultured these cells with keratinocyte-serum free medium containing bovine pituitary extract and human recombinant EGF (ThermoFisher #17005042) and added 1 μg/mL of puromycin-dihydrochloride (Invitrogen #A11138-03). All cells were cultured at 37°C in 5% CO2, and were passaged using 0.25% EDTA containing trypsin (Mediatech Inc). A hemocytometer was used to determine cell number. […]\n~10^3 QhTERT/wt, QhTERT/FGFR2b, and QhTERT/FGFR2c cells were grown on cover glass to ~80% confluence. […] Confocal fluorescence images were collected with Cy5.5 and DAPI filters (Leica Inverted SP5X 2-Photon FLIM confocal microscopes) using a 63X oil-immersion objective. Fluorescence intensities from 3 cells in each of 3 independent images were quantified using custom Matlab (Mathworks) software."}, "[1]": {"system": "sections of human esophagus ex vivo", "assay": "Confocal microscopy of staining of human esophageal specimens ex vivo (SQ, BE, HGD, EAC)", "protocol": "Formalin-fixed sections of human esophageal specimens were deparaffinized, and antigen retrieval was performed using standard methods. Briefly, the sections were incubated in xylene for 3 min 3X, washed with 100% ethanol for 2 min 2X, and washed with 95% ethanol for 2 min 2X. Rehydration was performed by washing in dH2O for 5 min 2X. Antigen unmasking was performed by boiling the slides in 10 mM sodium citrate buffer with 0.05% Tween at pH 6.0, and then maintaining at sub-boiling temperature for 15 min. The slides were cooled for 30 min, and the sections were washed in dH2O for 3 min 3X and in PBS for 5 min. Blocking was performed with DAKO protein blocking agent (X0909, DAKO) for 1 hour at RT. The peptides were incubated at a concentration of 1 μM for 10 min at RT. The sections were washed in PBS for 3 min 3X, and incubated with 1:1000 dilution of monoclonal anti-FGFR2 (Abcam, ab58201) overnight at 4°C.\nThe sections were then washed in PBS for 5 min 3X. A 1:500 dilution of AF488-labeled secondary antibody (goat anti-mouse) was added to each section and incubated for 30 min at RT. The secondary antibody solution was removed by washing with PBS for 5 min 3X. The sections were then mounted with ProLong Gold reagent containing DAPI (Invitrogen). The mean fluorescence intensities from 3 boxes (dimensions of 30×30 μm^2) located completely within the surface epithelium of each specimen were measured. […] Serial sections were processed for routine histology (H&E), and were reviewed by an expert gastrointestinal pathologist (HDA)."}, "[2]": {"system": "QhTERT cells that express FGFR2c", "assay": "Confocal fluorescence microscopy, binding to QhTERT cells that express FGFR2c", "format": "cell-based, human", "description": "All human esophageal specimens were obtained with written, informed patient consent per approval and guidelines of the University of Michigan Institutional Review Board (IRB). Human non-dysplastic Barrett's esophagus (BE) cells immortalized with hTert (QhTERT) were obtained from the American Type Culture Collection (ATCC) and cultured in keratinocyte-serum free medium containing bovine pituitary extract and human recombinant EGF (ThermoFisher #17005042). QhTERT cells with stable expression of FGFR2b or FGFR2c were provided (DGB). We cultured these cells with keratinocyte-serum free medium containing bovine pituitary extract and human recombinant EGF (ThermoFisher #17005042) and added 1 μg/mL of puromycin-dihydrochloride (Invitrogen #A11138-03). All cells were cultured at 37°C in 5% CO2, and were passaged using 0.25% EDTA containing trypsin (Mediatech Inc). A hemocytometer was used to determine cell number. Peptide synthesis reagents were obtained from either Anaspec or AAPPTEC with the highest grade available (>99% purity) and used without further purification. Solvents and other chemical reagents were obtained from Sigma-Aldrich, unless otherwise stated.\n~10^3 QhTERT/wt, QhTERT/FGFR2b, and QhTERT/FGFR2c cells were grown on cover glass to ~80% confluence. The cells were washed with PBS 1X and incubated with 1 μM of either peptide for 10 min at RT. The cells were then washed 3X in PBS, fixed with 4% paraformaldehyde (PFA) for 5 min, washed 1X with PBS, and then mounted on glass slides with ProLong Gold reagent containing DAPI (Invitrogen). Confocal fluorescence images were collected with Cy5.5 and DAPI filters (Leica Inverted SP5X 2-Photon FLIM confocal microscopes) using a 63X oil-immersion objective. Fluorescence intensities from 3 cells in each of 3 independent images were quantified using custom Matlab (Mathworks) software."}, "[3]": {"system": "sections of human gastric cancer", "assay": "Confocal microscopy of staining of human gastric cancer ex vivo", "description": "We observed good co-localization of peptide and antibody binding on merged images, Supplementary Figure 6C. Representative histology (H&E) for gastric cancer is shown, Supplementary Figure 6D. […] Representative histology (H&E) for normal stomach is shown, Supplementary Figure 6H."}, "[4]": {"assay": "Fluorescence spectra of Cy5.5-labeled peptides", "format": "physicochemical", "settings": "10 μM in PBS, excitation λex = 671 nm", "description": "We synthesized the 12 amino acid sequence SRRPASFRTARE (black) and attached the fluorophore Cy5.5 (red) via a GGGSK linker (blue) on the C-terminus, hereafter SRR^*-Cy5.5, Figure 1A. Cy5.5 was chosen for photostability and high quantum yield in the near-infrared (NIR) spectrum. We used a linker to prevent steric hindrance of the peptide by the dye. We then used a structural model (1EV2), [24] […] This domain is the same in either isoform FGFR2IIIb or FGFR2IIIc. We also used this model to develop a scrambled sequence SPSRERTFRARA for a control, Figure 1C. This peptide was also labeled with Cy5.5 via a GGGSK linker, hereafter SPS^*-Cy5.5. For SPS^*-Cy5.5, we calculated Et = −277.37. […] We purified SRR^*-Cy5.5 and […] to >97% on HPLC, and measured an experimental mass-to-charge (m/z) ratio on mass spectrometry of 2385.31 for both peptides that agreed with the expected value, Supplementary Figure 3.\nFigure 1 Peptide specific for FGFR2 Chemical structure is shown for 12 amino acid (aa) peptide sequence (A) SRRPASFRTARE (SRR^*) found to be specific for FGFR2, and (B) scrambled peptide SPSRERTFRARA (SPS^*) used for control. A Cy5.5 fluorophore (red) is attached via a GGGSK linker (blue) to prevent steric hindrance."}, "[5]": {"system": "QhTERT cells that express FGFR2c", "assay": "Apparent dissociation constant by flow cytometry", "format": "binding, human", "settings": "0 to 200 nM in PBS in 25 nM increments, 4°C, 1 hour; mean fluorescence intensity by flow cytometry; non-linear fit R^2 = 0.96; representative of 3 independent experiments", "protocol": "We measured the apparent dissociation constant kd for peptide binding to cells to assess binding affinity. The Cy5.5-labeled peptide was serially diluted in PBS at concentrations ranging from 0 to 200 nM in 25 nM increments. QhTERT/FGFR2c cells (~10^5) were incubated with peptide at 4°C for 1 hour, washed with cold PBS, and the mean fluorescence intensities were measured using flow cytometry. The equilibrium dissociation constant kd=1/ka was calculated by performing a least squares fit of the data to the non-linear equation I=(I0+Imaxka[X])/([…]). I0 and Imax are the initial and maximum fluorescence intensities, corresponding to no peptide and at saturation, respectively, and [X] represents the concentration of the […] peptide. Prism 5.0 software (GraphPad Inc) was used to calculate kd."}},
  "data": [
    {"sequence": "SRRPASFRTARE [SRR^*-Cy5.5]", "values": [
      {"measurement": "cell surface fluorescence signal / binding", "setting": "QhTERT wild-type cells", "result": "minimal signal"},
      {"measurement": "mean T/B ratio, HGD and EAC versus BE and SQ", "setting": "[1]; 3 boxes of 30×30 μm^2, n = 28, 33, 22, 17 specimens of SQ, BE, HGD, EAC", "result": "significantly higher"},
      {"measurement": "mean fluorescence intensity, HGD and EAC versus BE", "setting": "[1]; ANOVA, 4 means, log-transformed data, 3 boxes of 30×30 μm^2", "result": "significantly greater mean fluorescence intensity"},
      {"measurement": "fluorescence intensity / staining, Barrett's esophagus (BE)", "setting": "[1]; BE, n = 33 specimens, peptide 1 μM, 10 min at RT, antibody 1:1000 overnight at 4°C", "result": "minimal fluorescence intensity"},
      {"measurement": "fluorescence intensity / staining, esophageal adenocarcinoma (EAC)", "setting": "[1]; EAC, n = 17 specimens, peptide 1 μM, 10 min at RT, antibody 1:1000 overnight at 4°C", "result": "strong signal"},
      {"measurement": "fluorescence intensity / staining, high-grade dysplasia (HGD)", "setting": "[1]; HGD, n = 22 specimens, peptide 1 μM, 10 min at RT, antibody 1:1000 overnight at 4°C", "result": "strong signal"},
      {"measurement": "fluorescence intensity / staining, squamous (SQ)", "setting": "[1]; SQ, n = 28 specimens, peptide 1 μM, 10 min at RT, antibody 1:1000 overnight at 4°C", "result": "minimal fluorescence intensity"},
      {"measurement": "cell surface fluorescence signal / binding", "setting": "[2]; 1 μM peptide, 10 min at RT, confocal, 63X", "result": "strong signal"},
      {"measurement": "mean fluorescence intensity versus control SPS^*-Cy5.5", "setting": "[2]; compared with wild-type, log-transformed, ANOVA, 3 random cells on each of 3 slides", "result": "significantly greater mean fluorescence intensity"},
      {"measurement": "mean fluorescence intensity, gastric cancer versus normal, SRR*-Cy5.5", "setting": "[3]; P=7×10-17, paired two-sided t-test, 3 boxes of 30×30 μm2", "result": "significantly greater mean fluorescence intensity"},
      {"measurement": "fluorescence intensity / binding, gastric cancer", "setting": "[3]; gastric cancer sections ex vivo, n = 33 patients", "result": "strong fluorescence intensity"},
      {"measurement": "staining, normal human stomach", "setting": "[3]; normal stomach, comparison", "result": "minimal staining"},
      {"measurement": "peak emission λem", "setting": "[4]", "result": 710, "unit": "nm"},
      {"measurement": "Kd", "setting": "[5]", "result": 68, "unit": "nM"}
    ]}
  ]
}
